Experimental findings from patent US9949479B2 (priority 2015, dated 2018) are described below.

The assay deals with Fusarium graminearum. Description: microbe, parasite or virus in culture. The assay is classed as cell-based.

In brackets after ≈: the same amount, converted by molar mass. Where only a bound is given, the exact number is not on record here.

Consider `CC1(C)CCC(Cc2ccc(Cl)cc2)C1(O)Cn1cncn1` (stereo not drawn) [Metconazole], for which the ED50 by setting is: (F.g carbendazim-resistant strains) 0.113 µg/mL (≈ 0.353 µM); (F.g phenamacril-resistant strains) 0.115 µg/mL (≈ 0.36 µM). Moreover, the inhibition at 0.125 µg/mL (Fusarium graminearum, read-out: inhibitory effect on hyphal growth) was over 50%.
